Laboratory results taken from patent publication US7094761B2, “Methods and compounds for prevention and treatment of elevated intraocular pressure and related conditions” (Theratechnologies Inc., priority 2002, dated 2006).

Test system: intraocular pressure in piglets
Settings: for IC50: pig, in vivo; for effect on basal intraocular pressure: piglet, peptide in saline applied topically as drops, monitored for 15 min
Procedure: Method: Newborn pigs (1–3 days old) were anesthetized with 1.5% halothane for tracheostomy and catheterization of the right femoral vein for drug administration. Animals were ventilated by means of a Harvard small animal respirator with a gas mixture of 25% O2 and 75% N2. Halothane was discontinued after surgery and immediately thereafter the animals were sedated with Alpha-chloralose (50 mg/kg i.v.) and paralyzed with pancuronium (0.1 mg/kg i.v.). Animals were placed under radiant warmer to keep their body temperature at 37° C. A butterfly needle (24G) is inserted into the anterior chamber of both eyes and connected to a Statham pressure transducer connected to a Gould multichannel recorder. Intraocular pressure is then allowed to stabilize for 15 minutes. […] The intraocular pressure was monitored for 15 minutes at which time a maximal effect was observed.
Peptides dissolved in saline were applied to the eye after 15 min of stabilization of intraocular pressure and changes in pressure were monitored for 15 min. The deviation (negative for hypotension) was plotted as a function of time (min).
The experiments were done as above, except that intraocular pressure was plotted versus the dose of peptide used.

Row | Compound | IC50 [nM] | effect on basal intraocular pressure
1 | CC[C@H](C)[C@H](N)C(=O)N[C@@H](Cc1ccccc1)C(=O)N[C@@H](CC(=O)O)C(=O)N[C@@H](CO)C(=O)N[C@H](C(=O)N[C@@H](CCC(=O)O)C(=O)N[C@@H](CS)C(=O)N[C@@H](Cc1c[nH]c2ccccc12)C(=O)O)[C@@H](C)O [Peptide 1405, NH2-Ile Phe Asp Ser Thr Gln Cys Trp-OH] | 342 | produced a decrease in ocular pressure
2 | H-HIICSPLR-OH [Peptide 1402, NH2-His Ile Ile Cys Ser Pro Leu Arg-OH] | 86.4 | produced a decrease in ocular pressure
3 | NH2-Phe Ser Leu Thr Gln Lys Tyr Cys-OH (H-FSLTQKYC-OH) [Peptide 1401] |  | produced a decrease in ocular pressure
